Measured values published in article PMC11017246, “Discovery of GLPG2737, a Potent Type 2 Corrector of CFTR for the Treatment of Cystic Fibrosis in Combination with a Potentiator and a Type 1 Co-corrector” (Journal of Medicinal Chemistry, 2024).

Tests used:
[1] = Liver microsomal stability, monkey; type: in vitro ADME; conditions: matrix not given, read-out: Clintr,unbound monkey (converted)
Description: (§1) The microsomal stability assay was performed by incubation of test compound at 1 μM, 0.2% DMSO in phosphate buffer with microsomes (0.5 mg/mL) from mouse, rat, dog, or human (Xeno-Tech, Kansas City, KS, USA), and cofactors with final concentrations of 0.6 U/mL glucose-6- phosphate dehydrogenase, 3.3 mM MgCl2, 3.3 mM glucose-6-phosphate, and 1.3 mM nicotinamide adenine dinucleotide phosphate (NADP)+. Before addition of the microsomes (time zero) and after 30 min of incubation at 37 °C with shaking, the reaction was stopped, and proteins were precipitated with an excess of acetonitrile containing an internal standard. The samples were mixed, centrifuged, and filtered, and the supernatant was analyzed by liquid chromatography–mass spectrometry/mass spectrometry (LC–MS/MS). […] In vitro unbound intrinsic clearance (CLint,u) was calculated from the half-life using the following equations: [drawing 1] […]
(§2) Equilibrium dialysis is a technique used to measure microsomal binding. […] Each compound was analyzed in duplicate for 4 h at 37 °C. At the end of incubation, both chambers were sampled and analyzed by LC-MS/MS. The unbound microsomal fraction (fu, mic) was calculated as the concentration in buffer divided by the total concentration in the microsomal side. […]

(h)H1 = target: T1, (h)H1 (Homo sapiens, UniProt P35367); assay: Radioligand binding, (h)H1 (Eurofins panel); conditions: read-out: IC50, inhibition of radioligand binding to (h)H1
T1 construct: purchased Eurofins

[2] = In vitro micronucleus test; type: cell-based
CYP2D6 = target: T2, CYP2D6 (Homo sapiens, UniProt P10635); assay: CYP reversible inhibition in HLM, CYP2D6; type: in vitro ADME; conditions: probe dextromethorphan
T2 construct: tissue BD Gentest; host or cells: human liver microsomes
Description: (§3) Test compounds were diluted in methanol and then added to mixture containing 50 mM potassium phosphate buffer, pH 7.4, human liver microsomes (BD Gentest) and probe substrate. After prewarming for 5 min at 37 °C, the reaction was started by adding cofactor mix (7.65 mg/mL glucose-6-phosphate, 1.7 mg/mL NADP, 6 U/mL of glucose-6-phosphate dehydrogenase), resulting in seven final concentrations of test compounds in the range 0.14–100 μM (2% methanol). Isoform specific conditions regarding probe substrate and microsomal protein concentrations are available in Table 2. Final concentrations of cofactor mix components were as follows: 1.56 mg/mL glucose-6-phosphate, 0.34 mg/mL NADP, and 1.2 U/mL glucose-6-phosphate dehydrogenase. After incubation at 37 °C, the reaction was terminated with acetonitrile:methanol (2:1) solution with internal standard. Samples were centrifuged, and the supernatant fractions were analyzed by LC-MS/MS. The instrument responses (test compounds and internal standard peak areas) were referenced to those for solvent controls (assumed as 100%) in order to determine the percentage reduction in probe metabolism. Percent of control activity vs concentration plots were generated and fitted using GraphPad Prism software to generate IC50.

CYP3A4 = assay: CYP reversible inhibition in HLM, CYP3A4; type: in vitro ADME; conditions: human, human liver microsomes
Description: as §3

[3] = tested on: patients with CF homozygous for ΔF508; set-up: method as in PMID 31594690; conditions: patients receiving ivacaftor/lumacaftor; cited from earlier work
[4] = Liver microsomal stability, human; type: in vitro ADME; conditions: human; matrix not given; read-out: Clintr,unbound human (converted)
Description: (§4) The microsomal stability assay was performed by incubation of test compound at 1 μM, 0.2% DMSO in phosphate buffer with microsomes (0.5 mg/mL) from mouse, rat, dog, or human (Xeno-Tech, Kansas City, KS, USA), and cofactors with final concentrations of 0.6 U/mL glucose-6- phosphate dehydrogenase, 3.3 mM MgCl2, 3.3 mM glucose-6-phosphate, and 1.3 mM nicotinamide adenine dinucleotide phosphate (NADP)+. Before addition of the microsomes (time zero) and after 30 min of incubation at 37 °C with shaking, the reaction was stopped, and proteins were precipitated with an excess of acetonitrile containing an internal standard. The samples were mixed, centrifuged, and filtered, and the supernatant was analyzed by liquid chromatography–mass spectrometry/mass spectrometry (LC–MS/MS). The instrument responses (peak areas/IS peak areas) were referenced to the zero-time point samples (considered as 100%) to determine the percentage of compound remaining. In vitro unbound intrinsic clearance (CLint,u) was calculated from the half-life using the following equations: [drawing 1] [drawing 2] To take into account nonspecific binding, scaled CLint values were corrected with the fraction unbound in microsomes (fu, mic). [drawing 3]
(§5) Equilibrium dialysis is a technique used to measure microsomal binding. Briefly, the assay was performed in a 96-well Teflon dialysis unit (Dialysis Device), where each well consists of two chambers separated by a dialysis membrane (membrane strips, MW cutoff 12–14 kDa, HTDialysis). Inactivated liver microsomes (pooled human liver microsomes, Xenotech, protein concentration of 0.5 mg/mL) spiked with a compound (1 μM final concentration, 0.5% DMSO) were added to one chamber and buffer solution (50 mM PBS Buffer) was added to the other side of the well. Each compound was analyzed in duplicate for 4 h at 37 °C. At the end of incubation, both chambers were sampled and analyzed by LC-MS/MS. The unbound microsomal fraction (fu, mic) was calculated as the concentration in buffer divided by the total concentration in the microsomal side. Positive controls included in this assay are terfenadine and verapamil.

(h)Sigma = assay: Radioligand binding, (h)Sigma (Eurofins panel); set-up: species or system human; conditions: read-out: IC50, inhibition of radioligand binding to (h)Sigma
hERG = hERG (Homo sapiens, UniProt Q12809); assay: hERG manual patch clamp test; type: cell-based
[5] = Liver microsomal stability, rat; type: in vitro ADME; conditions: rat; matrix not given; read-out: Clintr,unbound rat (converted)
Description: as §4, §5

[6] = Hepatocyte stability, monkey; type: in vitro ADME; conditions: monkey hepatocytes
Description: The hepatocyte stability assay was performed by incubation of test compound at 1 μM, 0.03% DMSO in modified Krebs–Henseleit buffer with suspension of pooled cryopreserved hepatocytes (BioIVT, Hicksville, NY, USA) from mouse, rat, dog, or human (BioIVT, Hicksville, NY, USA) at 0.5 million viable hepatocytes/mL. Before adding the hepatocytes (time zero) and after 10, 20, 45, 90, 120, and 180 min of incubation (n = 2) at 37 °C while gently shaking, the reaction was stopped and proteins were precipitated with an excess of acetonitrile containing an internal standard. The samples were mixed, centrifuged, and filtered, and the supernatant was analyzed by liquid chromatography–mass spectrometry/mass spectrometry (LC–MS/MS). The instrument responses (peak areas/IS peak areas) were referenced to the zero-time point samples (considered as 100%) in order to determine the percentage of compound remaining.

[7] = Liver microsomal stability, dog; type: in vitro ADME; conditions: matrix not given, read-out: Clintr,unbound dog
Description: as §1, §2

hERG, sequence (Q12809 whole entry): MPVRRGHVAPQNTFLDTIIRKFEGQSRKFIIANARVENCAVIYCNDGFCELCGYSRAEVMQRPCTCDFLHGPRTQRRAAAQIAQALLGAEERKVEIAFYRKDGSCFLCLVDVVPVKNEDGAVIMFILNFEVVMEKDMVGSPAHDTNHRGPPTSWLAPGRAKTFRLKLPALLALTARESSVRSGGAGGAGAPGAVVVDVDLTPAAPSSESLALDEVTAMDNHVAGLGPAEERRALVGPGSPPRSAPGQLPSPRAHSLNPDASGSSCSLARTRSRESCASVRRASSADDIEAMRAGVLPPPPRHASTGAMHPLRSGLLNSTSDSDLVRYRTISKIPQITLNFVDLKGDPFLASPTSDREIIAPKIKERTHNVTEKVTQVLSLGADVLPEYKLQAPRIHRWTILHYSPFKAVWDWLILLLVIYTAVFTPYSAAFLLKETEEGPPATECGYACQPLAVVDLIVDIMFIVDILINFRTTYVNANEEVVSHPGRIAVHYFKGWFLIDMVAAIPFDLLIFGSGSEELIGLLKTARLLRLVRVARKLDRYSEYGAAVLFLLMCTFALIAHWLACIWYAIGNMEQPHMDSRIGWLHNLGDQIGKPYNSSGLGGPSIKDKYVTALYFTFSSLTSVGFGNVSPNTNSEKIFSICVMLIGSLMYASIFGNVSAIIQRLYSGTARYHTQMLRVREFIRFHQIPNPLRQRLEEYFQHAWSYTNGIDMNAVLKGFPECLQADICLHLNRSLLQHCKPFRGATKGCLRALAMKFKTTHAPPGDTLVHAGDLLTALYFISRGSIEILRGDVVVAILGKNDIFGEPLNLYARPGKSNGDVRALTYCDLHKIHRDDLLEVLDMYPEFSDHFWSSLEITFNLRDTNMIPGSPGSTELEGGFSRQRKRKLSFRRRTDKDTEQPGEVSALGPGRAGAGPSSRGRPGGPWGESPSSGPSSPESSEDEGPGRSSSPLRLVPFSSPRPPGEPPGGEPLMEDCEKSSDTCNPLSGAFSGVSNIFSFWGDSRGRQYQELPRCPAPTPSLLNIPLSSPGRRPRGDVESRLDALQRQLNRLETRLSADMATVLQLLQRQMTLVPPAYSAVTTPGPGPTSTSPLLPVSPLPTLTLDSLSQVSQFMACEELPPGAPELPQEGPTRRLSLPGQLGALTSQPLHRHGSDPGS
T2 sequence (P10635 whole entry): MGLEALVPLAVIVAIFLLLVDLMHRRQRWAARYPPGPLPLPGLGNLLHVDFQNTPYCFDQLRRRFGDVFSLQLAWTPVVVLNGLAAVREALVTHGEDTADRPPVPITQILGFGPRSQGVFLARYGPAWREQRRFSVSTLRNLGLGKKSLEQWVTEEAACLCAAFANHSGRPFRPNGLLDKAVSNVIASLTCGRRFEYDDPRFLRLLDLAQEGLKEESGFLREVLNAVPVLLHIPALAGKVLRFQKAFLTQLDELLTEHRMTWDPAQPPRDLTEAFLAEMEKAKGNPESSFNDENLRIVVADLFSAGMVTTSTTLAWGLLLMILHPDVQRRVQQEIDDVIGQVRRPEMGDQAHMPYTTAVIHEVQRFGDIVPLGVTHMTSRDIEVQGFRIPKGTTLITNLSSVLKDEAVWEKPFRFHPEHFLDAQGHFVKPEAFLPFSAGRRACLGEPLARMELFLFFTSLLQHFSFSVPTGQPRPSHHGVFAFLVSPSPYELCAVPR
T1 sequence (P35367 whole entry): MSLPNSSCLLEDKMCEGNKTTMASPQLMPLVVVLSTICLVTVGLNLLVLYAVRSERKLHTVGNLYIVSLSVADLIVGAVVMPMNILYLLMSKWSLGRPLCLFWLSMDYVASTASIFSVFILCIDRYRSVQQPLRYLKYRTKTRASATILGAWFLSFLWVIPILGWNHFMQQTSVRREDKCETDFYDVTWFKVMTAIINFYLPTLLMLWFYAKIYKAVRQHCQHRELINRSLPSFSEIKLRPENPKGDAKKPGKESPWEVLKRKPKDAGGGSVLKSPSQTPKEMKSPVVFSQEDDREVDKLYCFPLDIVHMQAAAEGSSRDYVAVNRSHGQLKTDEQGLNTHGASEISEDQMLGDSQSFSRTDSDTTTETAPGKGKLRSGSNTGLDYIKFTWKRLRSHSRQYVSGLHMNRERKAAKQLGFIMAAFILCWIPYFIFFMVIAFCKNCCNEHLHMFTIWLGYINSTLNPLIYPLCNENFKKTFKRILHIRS

## COC1CCN(C2CCN(c3cc(C(=O)NS(=O)(=O)N(C)C)nc4c3c(C3CCC3)nn4-c3ccc(F)cc3)CC2)CC1 [Compound 52, 3-Cyclobutyl-N-(N,N-dimethylsulfamoyl)-1-(4-fluorophenyl)-4-(4-methoxy-[1,4′-bipiperidin]-1′-yl)-1H-pyrazolo[3,4-b]pyridine-6-carboxamide]
[1]
  CLint scaled at 1 μM: 347 mL/min/kg
(h)H1
  IC50: 8 µM
[2]
  clastogenicity / aneugenicity: not mutagenic, clastogenic, or aneugenic
CYP2D6
  IC50: > 100 µM
CYP3A4; pH 7.4, probe midazolam
  IC50: > 100 µM
CYP3A4; pH 7.4, probe testosterone
  IC50: > 100 µM
Ames II test
  mutagenicity: not mutagenic
[3]
  efficacy versus placebo: improved efficacy versus placebo
  tolerability: well tolerated
[4]
  CLint scaled at 1 μM: 66.7 mL/min/kg
(h)Sigma
  IC50: 0.36 µM
hERG
  hERG inhibition: No significant inhibition
[5]
  CLint scaled at 1 μM: 82.3 mL/min/kg
[6]
  Hepatocyte stability: %LBF monkey: 65 %LBF
[6]; 1 µM
  Hepatocyte stability: predicted hepCl monkey: 28.8 mL/min/kg
[7]
  CLint scaled at 1 μM: < 32 mL/min/kg
